Patent US12077503B2, “Substituted cyclic amides and their use as herbicides” (FMC CORPORATION, priority 2015, dated 2024)
Like-named read-outs stand apart in the source and are kept apart here.

Key:
Assay type in all cases: in vivo
[1] = tested on: barnyardgrass (Echinochloa crus-galli); assay: Test A preemergence; conditions: Echinochloa crus-galli, pre-emergence, 240 h; for pest or weed control at 125 g/ha: 125 g ai/ha, 0 to 100 scale where 0 is no effect and 100 is complete control; for pest or weed control at 500 g/ha: 500 g ai/ha
Summary of the method: (§1)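 Preemergence soil spray on seeded pots or post-emergence spray on 1–2 leaf plants, in loam–sand blend. Greenhouse ~10 d. Visual rating 0–100 against untreated plants.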

[2] = tested on: ducksalad (Heteranthera limosa); assay: Test B flooded paddy test; conditions: Heteranthera limosa, 250 g ai/ha, Flood, read-out: Ducksalad plant response rating
Summary of the method: (§2)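 Compound goes directly into floodwater once pots are flooded 3 cm above soil, targeting plants at two leaves; the water depth is then held for the test duration. Plants sit 13–15 d in a greenhouse and are rated visually, 100 denoting complete control.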

[3] = tested on: sedge, umbrella (small-flower umbrella sedge, Cyperus difformis); assay: Test B flooded paddy test; conditions: Cyperus difformis, 250 g ai/ha, Flood, read-out: Sedge, Umbrella plant response rating
Summary of the method: as §2

[4] = tested on: barnyardgrass (Echinochloa crus-galli); assay: Test B flooded paddy test; conditions: Echinochloa crus-galli, 250 g ai/ha, Flood, read-out: Barnyardgrass plant response rating
Summary of the method: as §2

rice (Oryra sativa) = assay: Test B flooded paddy test; conditions: Oryza sativa, 250 g ai/ha, Flood, read-out: Rice plant response rating
Summary of the method: as §2

Kochia (Kochia scoparia) = assay: Test A postemergence; conditions: Bassia scoparia, post-emergence, 240 h, postemergence; for pest or weed control at 125 g/ha: 125 g ai/ha
Summary of the method: as §1

[5] = tested on: wheat (Triticum aestivum); assay: Test A postemergence; conditions: Triticum aestivum, post-emergence, 240 h, postemergence; for plant injury at 125 g/ha: 125 g ai/ha
Summary of the method: as §1

[6] = tested on: ryegrass, Italian (Italian ryegrass, Lolium multiflorum); assay: Test A postemergence; conditions: Lolium multiflorum, post-emergence, 240 h, postemergence; for pest or weed control at 125 g/ha: 125 g ai/ha
Summary of the method: as §1

[7] = tested on: blackgrass (Alopecurus myosuroides); assay: Test A postemergence; conditions: Alopecurus myosuroides, post-emergence, 240 h, postemergence, read-out: Blackgrass plant response rating
Summary of the method: as §1

[8] = tested on: giant foxtail (Setaria faberii); assay: Test A postemergence; conditions: Setaria faberi, post-emergence, 240 h, postemergence; for pest or weed control at 125 g/ha: 125 g ai/ha
Summary of the method: as §1

[9] = tested on: ragweed (common ragweed, Ambrosia elatior); assay: Test A postemergence; conditions: Ambrosia artemisiifolia, post-emergence, 240 h, postemergence; for pest or weed control at 125 g/ha: 125 g ai/ha
Summary of the method: as §1

[10] = tested on: pigweed (Amaranthus retroflexus); assay: Test A postemergence; conditions: Amaranthus retroflexus, post-emergence, 240 h, postemergence; for pest or weed control at 125 g/ha: 125 g ai/ha
Summary of the method: as §1

[11] = tested on: barnyardgrass (Echinochloa crus-galli); assay: Test A postemergence; conditions: Echinochloa crus-galli, post-emergence, 240 h, postemergence; for pest or weed control at 125 g/ha: 125 g ai/ha
Summary of the method: as §1

corn (Zea mays) = assay: Test A postemergence; conditions: Zea mays, post-emergence, 240 h, postemergence; for plant injury at 125 g/ha: 125 g ai/ha
Summary of the method: as §1

[12] = tested on: Galium (catchweed bedstraw, Galium aparine); assay: Test A postemergence; conditions: Galium, post-emergence, 240 h, 125 g ai/ha, postemergence, visual injury rating after approximately 10 d; read-out: Galium plant response rating (0 to 100 scale, 0 no effect, 100 complete control)
Summary of the method: as §1

[13] = 0 to 100 scale where 0 is no effect and 100 is complete control
[14] = preemergence, read-out: Barnyardgrass plant response rating
[15] = Preemergence, visual injury vs untreated controls after approximately 10 d, read-out: Barnyardgrass plant response rating (0 to 100 scale where 0 is no effect and 100 is complete control)
[16] = scale of 0 to 100 where 0 is no effect and 100 is complete control
[17] = visual injury rating after approximately 10 d, read-out: Kochia plant response rating (0 to 100 scale, 0 no effect, 100 complete control)
[18] = visual injury rating after approximately 10 d, read-out: Wheat plant response rating (0 to 100 scale, 0 no effect, 100 complete control)
[19] = visual injury rating after approximately 10 d, read-out: Ryegrass, Italian plant response rating (0 to 100 scale, 0 no effect, 100 complete control)
[20] = visual injury rating after approximately 10 d, read-out: Foxtail, Giant plant response rating (0 to 100 scale, 0 no effect, 100 complete control)
[21] = visual injury rating after approximately 10 d, read-out: Ragweed plant response rating (0 to 100 scale, 0 no effect, 100 complete control)
[22] = visual injury rating after approximately 10 d, read-out: Pigweed plant response rating (0 to 100 scale, 0 no effect, 100 complete control)
[23] = visual injury rating after approximately 10 d, read-out: Barnyardgrass plant response rating (0 to 100 scale, 0 no effect, 100 complete control)
[24] = visual injury rating after approximately 10 d, read-out: Corn plant response rating (0 to 100 scale, 0 no effect, 100 complete control)

Cc1ccc([C@H]2CNC(=O)[C@]2(Br)C(=O)Nc2cccc(F)c2F)cc1F (racemic) [Compound 1073]
15%: pest or weed control at 250 g/ha (rice (Oryra sativa); [13])
100%: pest or weed control at 125 g/ha ([1]; preemergence, approx. 10 d, read-out: Barnyardgrass plant response rating) | pest or weed control at 500 g/ha ([1]; preemergence, visual injury rating about 10 d after treatment, 0 to 100 scale (0 no effect, 100 complete control), read-out: Barnyardgrass plant response rating) | pest or weed control at 250 g/ha [2, 13]
30%: plant injury at 500 g/ha ([5]; 500 g ai/ha, 0 to 100 scale, 0 is no effect, 100 is complete control, read-out: Wheat plant response rating) | pest or weed control at 500 g/ha ([7]; 500 g ai/ha, 0 to 100 scale, 0 is no effect, 100 is complete control) | pest or weed control at 125 g/ha ([9]; visual injury on 0 to 100 scale (0 no effect, 100 complete control), approx. 10 d, read-out: Ragweed plant response rating) | pest or weed control at 500 g/ha ([9]; 500 g ai/ha, 0 to 100 scale, 0 is no effect, 100 is complete control, read-out: Ragweed plant response rating)
55%: pest or weed control at 250 g/ha [4, 13]
50%: plant injury at 500 g/ha (corn (Zea mays); 500 g ai/ha, 0 to 100 scale, 0 is no effect, 100 is complete control, read-out: Corn plant response rating)
20%: pest or weed control at 500 g/ha ([10]; 500 g ai/ha, 0 to 100 scale, 0 is no effect, 100 is complete control, read-out: Pigweed plant response rating) | plant injury at 125 g/ha (corn (Zea mays); visual injury on 0 to 100 scale (0 no effect, 100 complete control), approx. 10 d, read-out: Corn plant response rating)
0%: pest or weed control at 250 g/ha [3, 13] | pest or weed control at 125 g/ha (Kochia (Kochia scoparia); visual injury on 0 to 100 scale (0 no effect, 100 complete control), approx. 10 d, read-out: Kochia plant response rating) | plant injury at 125 g/ha ([5]; visual injury on 0 to 100 scale (0 no effect, 100 complete control), approx. 10 d, read-out: Wheat plant response rating) | pest or weed control at 125 g/ha ([6]; visual injury on 0 to 100 scale (0 no effect, 100 complete control), approx. 10 d, read-out: Ryegrass, Italian plant response rating) | pest or weed control at 125 g/ha ([7]; 125 g ai/ha, visual injury on 0 to 100 scale (0 no effect, 100 complete control), approx. 10 d) | pest or weed control at 125 g/ha ([8]; visual injury on 0 to 100 scale (0 no effect, 100 complete control), approx. 10 d, read-out: Foxtail, Giant plant response rating) | pest or weed control at 125 g/ha ([10]; visual injury on 0 to 100 scale (0 no effect, 100 complete control), approx. 10 d, read-out: Pigweed plant response rating)
90%: pest or weed control at 500 g/ha ([11]; 500 g ai/ha, 0 to 100 scale, 0 is no effect, 100 is complete control, read-out: Barnyardgrass plant response rating)
70%: pest or weed control at 125 g/ha ([11]; visual injury on 0 to 100 scale (0 no effect, 100 complete control), approx. 10 d, read-out: Barnyardgrass plant response rating)
40%: pest or weed control at 500 g/ha (Kochia (Kochia scoparia); 500 g ai/ha, 0 to 100 scale, 0 is no effect, 100 is complete control, read-out: Kochia plant response rating) | pest or weed control at 500 g/ha ([6]; 500 g ai/ha, 0 to 100 scale, 0 is no effect, 100 is complete control, read-out: Ryegrass, Italian plant response rating) | pest or weed control at 500 g/ha ([8]; 500 g ai/ha, 0 to 100 scale, 0 is no effect, 100 is complete control, read-out: Foxtail, Giant plant response rating)

O=C1NC[C@H](c2cc(F)c(C(F)(F)F)c(F)c2)[C@H]1C(=O)Nc1ccc(F)cc1F [Compound 840]
90%: pest or weed control at 500 g/ha [1, 15] | pest or weed control at 125 g/ha [8, 20]
0%: pest or weed control at 250 g/ha [3, 16] | pest or weed control at 250 g/ha [4, 16] | pest or weed control at 250 g/ha (rice (Oryra sativa); [16]) | pest or weed control at 125 g/ha (Kochia (Kochia scoparia); [17]) | pest or weed control at 125 g/ha [6, 19] | pest or weed control at 125 g/ha [9, 21] | pest or weed control at 125 g/ha [10, 22]
30%: plant injury at 125 g/ha (corn (Zea mays); [24])
80%: pest or weed control at 125 g/ha [1, 14] | pest or weed control at 250 g/ha [2, 16] | pest or weed control at 125 g/ha [11, 23]
50%: pest or weed control at 125 g/ha [12]
20%: plant injury at 125 g/ha [5, 18]

CCOc1ccc([C@H]2CNC(=O)[C@@H]2C(=O)Nc2ccccc2F)cc1 [Compound 906]
0%: pest or weed control at 125 g/ha [1, 14] | pest or weed control at 500 g/ha [1, 15] | pest or weed control at 250 g/ha [2, 16] | pest or weed control at 250 g/ha [3, 16] | pest or weed control at 250 g/ha [4, 16] | pest or weed control at 250 g/ha (rice (Oryra sativa); [16]) | pest or weed control at 125 g/ha [12] | pest or weed control at 125 g/ha (Kochia (Kochia scoparia); [17]) | plant injury at 125 g/ha [5, 18] | pest or weed control at 125 g/ha [6, 19] | pest or weed control at 125 g/ha [8, 20] | pest or weed control at 125 g/ha [9, 21] | pest or weed control at 125 g/ha [10, 22] | pest or weed control at 125 g/ha [11, 23] | plant injury at 125 g/ha (corn (Zea mays); [24])
